This passage reports EC50 and Ki results from BindingDB's records for doi:10.1016/1074-5521(95)90264-3 (Smithkline Beecham Pharmaceuticals, 1995).

Peptidyl-prolyl cis-trans isomerase FKBP1A, sequence (P62942 whole entry): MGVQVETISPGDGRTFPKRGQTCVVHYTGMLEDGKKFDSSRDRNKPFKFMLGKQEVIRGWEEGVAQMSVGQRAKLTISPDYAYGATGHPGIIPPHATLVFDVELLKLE

The assay addresses Peptidyl-prolyl cis-trans isomerase FKBP1A (Homo sapiens, UniProt P62942). The assay is described as follows: FKBP12 Assay. The source says: FKBP12 assay using rapamycin analogs.
As for `CCO[C@@H]1C[C@@H]2CC[C@@H](C)[C@@](O)(O2)C(=O)C(=O)N2CCCC[C@H]2C(=O)O[C@H]([C@H](C)C[C@@H]2CC[C@@H](O)[C@H](OC)C2)CC(=O)[C@H](C)/C=C(\C)[C@@H](O)[C@@H](OC)C(=O)[C@H](C)C[C@H](C)/C=C/C=C/C=C/1C` [Rapamycin C-7, analog 5a], a half-maximal response (EC50) required 10 nM and the inhibition constant Ki worked out at 3.5 nM.
For `CCO[C@H]1C[C@@H]2CC[C@@H](C)[C@@](O)(O2)C(=O)C(=O)N2CCCC[C@H]2C(=O)O[C@H]([C@H](C)C[C@@H]2CC[C@@H](O)[C@H](OC)C2)CC(=O)[C@H](C)/C=C(\C)[C@@H](O)[C@@H](OC)C(=O)[C@H](C)C[C@H](C)/C=C/C=C/C=C/1C` [Rapamycin C-7, analog 5b] the same measures were 200 nM and 4 nM.
The matching figures for `CO[C@@H]1C[C@H](C[C@@H](C)[C@@H]2CC(=O)[C@H](C)/C=C(\C)[C@@H](O)[C@@H](OC)C(=O)[C@H](C)C[C@H](C)/C=C/C=C/C=C(\C)[C@H](SC)C[C@@H]3CC[C@@H](C)[C@@](O)(O3)C(=O)C(=O)N3CCCC[C@H]3C(=O)O2)CC[C@H]1O` [Rapamycin C-7, analog 6a]: 4 nM and 1 nM.
The matching figures for `CO[C@@H]1C[C@H](C[C@@H](C)[C@@H]2CC(=O)[C@H](C)/C=C(\C)[C@@H](O)[C@@H](OC)C(=O)[C@H](C)C[C@H](C)/C=C/C=C/C=C(\C)[C@@H](SC)C[C@@H]3CC[C@@H](C)[C@@](O)(O3)C(=O)C(=O)N3CCCC[C@H]3C(=O)O2)CC[C@H]1O` [Rapamycin C-7, analog 6b]: 4 nM and 1 nM.
As for `COC(=O)N[C@@H]1C[C@@H]2CC[C@@H](C)[C@@](O)(O2)C(=O)C(=O)N2CCCC[C@H]2C(=O)O[C@H]([C@H](C)C[C@@H]2CC[C@@H](O)[C@H](OC)C2)CC(=O)[C@H](C)/C=C(\C)[C@@H](O)[C@@H](OC)C(=O)[C@H](C)C[C@H](C)/C=C/C=C/C=C/1C` [Rapamycin C-7, analog 7a], the EC50 is above 10000 nM and the Ki is 4.5 nM.
The matching figures for `COC(=O)N[C@H]1C[C@@H]2CC[C@@H](C)[C@@](O)(O2)C(=O)C(=O)N2CCCC[C@H]2C(=O)O[C@H]([C@H](C)C[C@@H]2CC[C@@H](O)[C@H](OC)C2)CC(=O)[C@H](C)/C=C(\C)[C@@H](O)[C@@H](OC)C(=O)[C@H](C)C[C@H](C)/C=C/C=C/C=C/1C` [Rapamycin C-7, analog 7b]: 2500 nM and 3.7 nM.
With `COc1ccc([C@@H]2C[C@@H]3CC[C@@H](C)[C@@](O)(O3)C(=O)C(=O)N3CCCC[C@H]3C(=O)O[C@H]([C@H](C)C[C@@H]3CC[C@@H](O)[C@H](OC)C3)CC(=O)[C@H](C)/C=C(\C)[C@@H](O)[C@@H](OC)C(=O)[C@H](C)C[C@H](C)/C=C/C=C/C=C/2C)c(OC)c1` [Rapamycin C-7, analog 8a], the concentration for a half-maximal effect (EC50) was 1000 nM and the affinity corresponds to a Ki of 9 nM.
For `COc1ccc([C@H]2C[C@@H]3CC[C@@H](C)[C@@](O)(O3)C(=O)C(=O)N3CCCC[C@H]3C(=O)O[C@H]([C@H](C)C[C@@H]3CC[C@@H](O)[C@H](OC)C3)CC(=O)[C@H](C)/C=C(\C)[C@@H](O)[C@@H](OC)C(=O)[C@H](C)C[C@H](C)/C=C/C=C/C=C/2C)c(OC)c1` [Rapamycin C-7, analog 8b] the same measures were above 1000 nM and 38 nM.
On to `COc1cc(OC)c([C@H]2C[C@@H]3CC[C@@H](C)[C@@](O)(O3)C(=O)C(=O)N3CCCC[C@H]3C(=O)O[C@H]([C@H](C)C[C@@H]3CC[C@@H](O)[C@H](OC)C3)CC(=O)[C@H](C)/C=C(\C)[C@@H](O)[C@@H](OC)C(=O)[C@H](C)C[C@H](C)/C=C/C=C/C=C/2C)c(OC)c1` [Rapamycin C-7, analog 9], for which the EC50 was above 1000 nM and the Ki was determined as 7 nM.
The matching figures for `CO[C@@H]1C[C@H](C[C@@H](C)[C@@H]2CC(=O)[C@H](C)/C=C(\C)[C@@H](O)[C@@H](OC)C(=O)[C@H](C)C[C@H](C)/C=C/C=C/C=C(\C)[C@H](c3ccco3)C[C@@H]3CC[C@@H](C)[C@@](O)(O3)C(=O)C(=O)N3CCCC[C@H]3C(=O)O2)CC[C@H]1O` [Rapamycin C-7, analog 10a]: 20 nM and 3 nM.
For `CO[C@@H]1C[C@H](C[C@@H](C)[C@@H]2CC(=O)[C@H](C)/C=C(\C)[C@@H](O)[C@@H](OC)C(=O)[C@H](C)C[C@H](C)/C=C/C=C/C=C(\C)[C@@H](c3ccco3)C[C@@H]3CC[C@@H](C)[C@@](O)(O3)C(=O)C(=O)N3CCCC[C@H]3C(=O)O2)CC[C@H]1O` [Rapamycin C-7, analog 10b] the same measures were 20 nM and 6 nM.
The matching figures for `CO[C@@H]1C[C@H](C[C@@H](C)[C@@H]2CC(=O)[C@H](C)/C=C(\C)[C@@H](O)[C@@H](OC)C(=O)[C@H](C)C[C@H](C)/C=C/C=C/C=C(\C)[C@H](c3ccc[nH]3)C[C@@H]3CC[C@@H](C)[C@@](O)(O3)C(=O)C(=O)N3CCCC[C@H]3C(=O)O2)CC[C@H]1O` [Rapamycin C-7, analog 11a]: 11 nM and 10 nM.
`CO[C@@H]1C[C@H](C[C@@H](C)[C@@H]2CC(=O)[C@H](C)/C=C(\C)[C@@H](O)[C@@H](OC)C(=O)[C@H](C)C[C@H](C)/C=C/C=C/C=C(\C)[C@@H](c3ccc[nH]3)C[C@@H]3CC[C@@H](C)[C@@](O)(O3)C(=O)C(=O)N3CCCC[C@H]3C(=O)O2)CC[C@H]1O` [Rapamycin C-7, analog 11b] gave an EC50 of 70 nM and a Ki of 1.5 nM.
The matching figures for `CO[C@@H]1C[C@H](C[C@@H](C)[C@@H]2CC(=O)[C@H](C)/C=C(\C)[C@@H](O)[C@@H](OC)C(=O)[C@H](C)C[C@H](C)/C=C/C=C/C=C(\C)CC[C@@H]3CC[C@@H](C)[C@@](O)(O3)C(=O)C(=O)N3CCCC[C@H]3C(=O)O2)CC[C@H]1O` [Rapamycin C-7, analog 12]: 2 nM and 1 nM.
The compound `CO[C@@H]1C[C@H](C[C@@H](C)[C@@H]2CC(=O)[C@H](C)/C=C(\C)[C@@H](O)[C@@H](OC)C(=O)[C@H](C)C[C@H](C)C=CC=CC=C(C)C(=O)C[C@@H]3CC[C@@H](C)[C@@](O)(O3)C(=O)C(=O)N3CCCC[C@H]3C(=O)O2)CC[C@H]1O` [Rapamycin C-7, analog 13] displayed an EC50 of 300 nM and an inhibition constant (Ki) of 29 nM.
For `CO[C@@H]1C[C@H](C[C@@H](C)[C@@H]2CC(=O)[C@H](C)/C=C(\C)[C@@H](O)[C@@H](OC)C(=O)[C@H](C)C[C@H](C)/C=C/C=C/C=C(\C)[C@H](OCc3ccccc3)C[C@@H]3CC[C@@H](C)[C@@](O)(O3)C(=O)C(=O)N3CCCC[C@H]3C(=O)O2)CC[C@H]1O` [Rapamycin C-7, analog 14a] the same measures were 6 nM and 5 nM.
The matching figures for `CO[C@@H]1C[C@H](C[C@@H](C)[C@@H]2CC(=O)[C@H](C)/C=C(\C)[C@@H](O)[C@@H](OC)C(=O)[C@H](C)C[C@H](C)/C=C/C=C/C=C(\C)[C@H](OCc3cccc([N+](=O)[O-])c3)C[C@@H]3CC[C@@H](C)[C@@](O)(O3)C(=O)C(=O)N3CCCC[C@H]3C(=O)O2)CC[C@H]1O` [Rapamycin C-7, analog 15a]: 50 nM and 7 nM.
Turning to `CO[C@@H]1C[C@H](C[C@@H](C)[C@@H]2CC(=O)[C@H](C)/C=C(\C)[C@@H](O)[C@@H](OC)C(=O)[C@H](C)C[C@H](C)/C=C/C=C/C=C(\C)[C@H](OCc3ccc(Cl)cc3)C[C@@H]3CC[C@@H](C)[C@@](O)(O3)C(=O)C(=O)N3CCCC[C@H]3C(=O)O2)CC[C@H]1O` [Rapamycin C-7, analog 16a], the EC50 was 45 nM and the Ki is 1 nM.
The matching figures for `CO[C@@H]1C[C@H](C[C@@H](C)[C@@H]2CC(=O)[C@H](C)/C=C(\C)[C@@H](O)[C@@H](OC)C(=O)[C@H](C)C[C@H](C)/C=C/C=C/C=C(\C)[C@H](OCc3ccc(N=[N+]=[N-])c(I)c3)C[C@@H]3CC[C@@H](C)[C@@](O)(O3)C(=O)C(=O)N3CCCC[C@H]3C(=O)O2)CC[C@H]1O` [Rapamycin C-7, analog 17a]: 90 nM and 30 nM.

Usually EC50 stands for the concentration at which the effect is half-maximal. Low readings indicate an effect from little substance, high ones a need for much substance. The term Ki denotes the dissociation constant of the complex between target and ligand, obtained from inhibition or displacement.
